Data reported in EP0338092A1, “ANTI-HIV AGENT” (Chugai Seiyaku Kabushiki Kaisha, priority 1987, dated 1989).

Tested on: HIV
Experiment: Detection of viral antigen (indirect fluorescent antibody technique) in HIV-infected Molt-4 clone No. 8 cells
Format: cell-based
Procedure: The sodium salts of oligosaccharide poly-sulfate esters prepared in Preparation Examples 1 - 3 and 5 - 7 were used as test samples. Molt-4 clone No. 8 cells were infected with a virus obtained from Molt-4/HIV producing cell.
The experiment was conducted in accordance with the method of Itoh et al. described in Antiviral Research, 7 (1987), 361 - 367.
The proportions of HIV antigen positive cells were determined by an indirect fluorescent antibody technique using an anti-HIV antibody positive serum as antibody against the infected cells. The results are shown in Tables 2 and 3, in which each of the figure listed denotes the percentage of infected cells taken by HIV antigen positive cells.

[1] = Table 3, amount of sample added 7.8 µg/ml
[2] = Table 3, amount of sample added 32 µg/ml
[3] = Table 3, amount of sample added 125 µg/ml
[4] = Table 3, amount of sample added 500 µg/ml
[5] = Table 3, amount of sample added 1000 µg/ml

Substance | percentage of infected cells taken by HIV antigen positive cells [1] [%] | percentage of infected cells taken by HIV antigen positive cells [2] [%] | percentage of infected cells taken by HIV antigen positive cells [3] [%] | percentage of infected cells taken by HIV antigen positive cells [4] [%] | percentage of infected cells taken by HIV antigen positive cells [5] [%]
sodium salt of maltoheptaose sulfate ester [compound 7] | 18.2 | 4.8 | 4.4 | 4.1 | 3.2
sodium salt of maltohexaose sulfate ester [compound 5] | 20.3 | 5.3 | 5.8 | 3.6 | 4.4
sodium salt of maltopentaose sulfate ester [compound 6] | 24.1 | 6.4 | 6.0 | 4.4 | 4.6
